Measured values from ChEMBL document CHEMBL1201862, “PubChem BioAssay data set” (2004).
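Method: 48-hour compound exposure of cells in 96-well plates, five concentrations, linear interpolation of endpoints. GI50 is the concentration that inhibits growth by half.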 Calls of active or inactive are those of the source. No stated cut-off is given here; in the data, active = GI50 up to about 1.1 µM and inactive = higher.

Legend:
Assay in all cases: NCI anticancer screen, dose series, 48 h
CAKI-1 = tested on: CAKI-1
HOP-62 = tested on: HOP-62
SW-620 = tested on: SW-620
IGROV-1 = tested on: IGROV-1
OVCAR-4 = tested on: OVCAR-4
HT-29 = tested on: HT-29
NCI-H226 = tested on: NCI-H226
HCT-15 = tested on: HCT-15
HOP-92 = tested on: HOP-92
UO-31 = tested on: UO-31
SNB-19 = tested on: SNB-19
Hs-578T = tested on: Hs-578T
SNB-75 = tested on: SNB-75
UACC-257 = tested on: UACC-257
A549 = tested on: A549
SF-268 = tested on: SF-268
786-0 = tested on: 786-0
SF-295 = tested on: SF-295
UACC-62 = tested on: UACC-62
RXF 393 = tested on: RXF 393
MOLT-4 = tested on: MOLT-4
OVCAR-8 = tested on: OVCAR-8
SK-MEL-5 = tested on: SK-MEL-5
SF-539 = tested on: SF-539
TK-10 = tested on: TK-10
SK-OV-3 = tested on: SK-OV-3
HL-60 = tested on: HL-60
LOX IMVI = tested on: LOX IMVI
OVCAR-5 = tested on: OVCAR-5
K562 = tested on: K562
HCC 2998 = tested on: HCC 2998
Malme-3M = tested on: Malme-3M
MCF7 = tested on: MCF7
BT-549 = tested on: BT-549
NCI-H460 = tested on: NCI-H460
NCI/ADR-RES = tested on: NCI/ADR-RES
MDA-MB-231 = tested on: MDA-MB-231
M14 = tested on: M14
SN12C = tested on: SN12C
MDA-MB-435 = tested on: MDA-MB-435
COLO 205 = tested on: COLO 205
EKVX = tested on: EKVX
NCI-H23 = tested on: NCI-H23
KM12 = tested on: KM12
MDA-N = tested on: MDA-N
NCI-H522 = tested on: NCI-H522
SK-MEL-2 = tested on: SK-MEL-2
SK-MEL-28 = tested on: SK-MEL-28
SR = tested on: SR
T47D = tested on: T47D
U-251 = tested on: U-251
ACHN = tested on: ACHN
PC-3 = tested on: PC-3
RPMI-8226 = tested on: RPMI-8226
HCT-116 = tested on: HCT-116
A498 = tested on: A498
OVCAR-3 = tested on: OVCAR-3
CCRF-CEM = tested on: CCRF-CEM
DU-145 = tested on: DU-145

Compound: N#CC1CCN2N=C(c3ccccc3)SC12c1ccccc1 (stereo not given)
- GI50 (CAKI-1): 35.4 µM (inactive)
- GI50 (HOP-62): > 100 µM (inactive)
- GI50 (SW-620): 39.4 µM (inactive)
- GI50 (IGROV-1): > 100 µM (inactive)
- GI50 (OVCAR-4): 76.7 µM (inactive)
- GI50 (HT-29): 32.1 µM (inactive)
- GI50 (NCI-H226): 58.1 µM (inactive)
- GI50 (HCT-15): 38.5 µM
- GI50 (HOP-92): 58.1 µM (inactive)
- GI50 (UO-31): 35.1 µM (inactive)
- GI50 (SNB-19): > 100 µM (inactive)
- GI50 (Hs-578T): 88.3 µM (inactive)
- GI50 (SNB-75): > 100 µM (inactive)
- GI50 (UACC-257): 39.3 µM (inactive)
- GI50 (A549): 23.7 µM (inactive)
- GI50 (SF-268): > 100 µM (inactive)
- GI50 (786-0): 89.1 µM (inactive)
- GI50 (SF-295): 60.5 µM (inactive)
- GI50 (UACC-62): 4.91 µM (inactive)
- GI50 (RXF 393): 31.3 µM (inactive)
- GI50 (MOLT-4): 17.5 µM (inactive)
- GI50 (OVCAR-8): 76.6 µM (inactive)
- GI50 (SK-MEL-5): 34.4 µM (inactive)
- GI50 (SF-539): 78.2 µM (inactive)
- GI50 (TK-10): > 100 µM (inactive)
- GI50 (SK-OV-3): > 100 µM (inactive)
- GI50 (HL-60): 32.9 µM (inactive)
- GI50 (LOX IMVI): 51.9 µM (inactive)
- GI50 (OVCAR-5): > 100 µM (inactive)
- GI50 (K562): 28.6 µM (inactive)
- GI50 (HCC 2998): 26.7 µM (inactive)
- GI50 (Malme-3M): > 100 µM (inactive)
- GI50 (MCF7): 31.1 µM (inactive)
- GI50 (BT-549): 43 µM (inactive)
- GI50 (NCI-H460): 26.1 µM (inactive)
- GI50 (NCI/ADR-RES): 32.9 µM (inactive)
- GI50 (MDA-MB-231): > 100 µM (inactive)
- GI50 (M14): 45.6 µM (inactive)
- GI50 (SN12C): 40.4 µM (inactive)
- GI50 (MDA-MB-435): 61.4 µM (inactive)
- GI50 (COLO 205): 40.7 µM (inactive)
- GI50 (EKVX): 18.8 µM (inactive)
- GI50 (NCI-H23): 32 µM (inactive)
- GI50 (KM12): 48.6 µM (inactive)
- GI50 (MDA-N): 54.7 µM (inactive)
- GI50 (NCI-H522): 46.2 µM (inactive)
- GI50 (SK-MEL-2): 53.3 µM (inactive)
- GI50 (SK-MEL-28): > 100 µM (inactive)
- GI50 (SR): 37.1 µM (inactive)
- GI50 (T47D): 24.5 µM (inactive)
- GI50 (U-251): 44 µM (inactive)
- GI50 (ACHN): 21.1 µM (inactive)
- GI50 (PC-3): 35.7 µM (inactive)
- GI50 (RPMI-8226): 26.3 µM (inactive)
- GI50 (HCT-116): 35.2 µM (inactive)

Compound: COC(=O)Cc1c(C2=Nc3ccccc3C2(O)CC(=O)OC)[nH]c2ccccc12 (stereo not given)
- GI50 (CAKI-1): 23 µM (inactive)
- GI50 (HOP-62): > 100 µM (inactive)
- GI50 (SW-620): 47.3 µM (inactive)
- GI50 (IGROV-1): 1.09 µM (active)
- GI50 (HT-29): > 100 µM (inactive)
- GI50 (A498): > 100 µM (inactive)
- GI50 (NCI-H226): > 100 µM (inactive)
- GI50 (HCT-15): 40.9 µM
- GI50 (HOP-92): 26.5 µM (inactive)
- GI50 (UO-31): 68.5 µM (inactive)
- GI50 (SNB-19): 55.8 µM (inactive)
- GI50 (Hs-578T): 24.2 µM (inactive)
- GI50 (SNB-75): > 100 µM (inactive)
- GI50 (UACC-257): > 100 µM (inactive)
- GI50 (A549): 94 µM (inactive)
- GI50 (SF-268): > 100 µM (inactive)
- GI50 (786-0): 41.5 µM (inactive)
- GI50 (SF-295): 45.8 µM (inactive)
- GI50 (UACC-62): > 100 µM (inactive)
- GI50 (RXF 393): 97.9 µM (inactive)
- GI50 (MOLT-4): 19.7 µM (inactive)
- GI50 (OVCAR-8): 49.3 µM (inactive)
- GI50 (SK-MEL-5): 60.4 µM (inactive)
- GI50 (SF-539): 29.6 µM (inactive)
- GI50 (TK-10): > 100 µM (inactive)
- GI50 (SK-OV-3): > 100 µM (inactive)
- GI50 (HL-60): 22 µM (inactive)
- GI50 (LOX IMVI): 99.3 µM (inactive)
- GI50 (OVCAR-5): 54.6 µM (inactive)
- GI50 (K562): 27 µM (inactive)
- GI50 (Malme-3M): 22.6 µM (inactive)
- GI50 (BT-549): > 100 µM (inactive)
- GI50 (OVCAR-3): 62.1 µM (inactive)
- GI50 (NCI-H460): > 100 µM (inactive)
- GI50 (NCI/ADR-RES): > 100 µM (inactive)
- GI50 (MDA-MB-231): 45.2 µM (inactive)
- GI50 (M14): 78.2 µM (inactive)
- GI50 (SN12C): 68.5 µM (inactive)
- GI50 (MDA-MB-435): > 100 µM (inactive)
- GI50 (COLO 205): 20.3 µM (inactive)
- GI50 (EKVX): 36.6 µM (inactive)
- GI50 (NCI-H23): > 100 µM (inactive)
- GI50 (KM12): 58.6 µM (inactive)
- GI50 (MDA-N): > 100 µM (inactive)
- GI50 (NCI-H522): 18.9 µM (inactive)
- GI50 (SK-MEL-2): > 100 µM (inactive)
- GI50 (SK-MEL-28): 61.5 µM (inactive)
- GI50 (T47D): 15.5 µM (inactive)
- GI50 (U-251): 34.5 µM (inactive)
- GI50 (ACHN): 34.9 µM (inactive)
- GI50 (PC-3): 30 µM (inactive)
- GI50 (CCRF-CEM): 20.1 µM (inactive)
- GI50 (DU-145): > 100 µM (inactive)
- GI50 (RPMI-8226): 25.4 µM (inactive)
- GI50 (HCT-116): 31.8 µM (inactive)
